“And” between values parts separate entries of the source, which are not always exact repeats. Equal entries are not always repeated. “Also recorded” adds a separate entry of the source.

These results are taken from patent publication US10450610B2, “Single nucleotide polymorphisms (SNP) and association with resistance to immune tolerance induction” (University of Tennessee Research Foundation, priority 2008, dated 2019).

For one test, the system named is PBMC. Kind of test: Oral type I collagen in SSc patients; change in IL-10 production by antigen-stimulated PBMC. The test is classed as in vivo, human. As to the method:
Samples from 26 patients from a trial of oral type I collagen (CI) in patients with diffuse systemic sclerosis (SSc) who took 500 μg/day CI for 12 months were collected. […] No patients were on DMARDs, biologies, NSAIDS or prednisone.
Patients with ROT1 AA, GG or GA genotype had IL-10 measured of IL-PBMC cultures stimulated by α1(I) CB mixture, α2(I) CB mixture, or native CI after receiving oral CI for 12 months minus the values of IL-10 in the supernatants of PBMC cultures stimulated with the same antigens at baseline before oral CI was administered to the SSc patients.

Test [1] is described as follows: Phase II oral CI tolerance clinical trial in SSc; change in MRSS. The test is classed as in vivo, human. As to conditions: CI treated vs placebo treated completers, Late Phase ROT1AA patients deleted; Wilcoxon Rank Sum test; FIG. 16. The text has this: In the Phase II oral CI tolerance clinical trial at 12 months, 79 SSc patients were genotyped of the 168 enrolled in the clinical trial. Seven of the 23 ROT1AA genotype were in the Late Phase category, and deleted from the results.

Test [2] concerns DBA/1 mice. Kind of test: NSAID inhibition of oral tolerance induction to collagen II; arthritic joints scored. The test is classed as in vivo. As to the method:
To determine whether tolerance induction to orally fed bovine CII in DBA/1 mice would be abrogated by orally fed NSAID, 3 groups of 20-22 DBA/1 mice were fed (by gavage) eight doses (Monday, Tuesday, Thursday, and Friday for 2 weeks) of the following: Placebo (saline) in the a.m. and Placebo (0.1 M HAc) in the p.m.; Placebo (saline) in the a.m. and 10 μg native bovine CII in the p.m.; or piroxicam (2.4 μg/gm) in the a.m. and native bovine CII (10 μg) in the p.m. After 1 week, all mice were immunized (intradermally at the base of tail) with 100 μg of bovine CII emulsified in complete Freund's adjuvant. Animals were placed in coded cages and were scored by a blinded observer twice weekly for the number of arthritic joints (joints swollen, red, and/or deformed).

The subject of another test is spleen cells. The experiment in a line: IFNγ production by spleen cells of fed, CII-immunized mice cultured with α1(II) CB peptide mixture (ELISA). The test is classed as in vivo. The note with it: FIG. 8. The text has this: To assess the effect of oral feeding of piroxicam to another group of mice fed Placebo or CII on spleen cell IFNγ production in a manner similar to the experiment in FIG. 7, four groups of mice (4 mice per group) were gavaged 8 days over 2 weeks with the following: Piroxicam a.m.—CII p.m.; Piroxicam a.m.—HAc p.m.; Saline a.m.—CII p.m.; or Saline a.m.—HAc p.m. After 1 week rest, all mice were immunized at the base of the tail with a CII—complete Freund's adjuvant emulsion. After 14 days, mice ere sacrificed, and spleen cells were isolated and set up in culture with PBS or α1(II)CB peptide mixture. After 72 h culture, harvested supernatants ere analyzed for IFNγ levels by ELISA.

Test [3] deals with DBA/1 mice. The experiment in a line: Persistent NSAID effect on oral tolerance; arthritic joints after late CII immunization. The note with it: FIG. 10. It is filed as in vivo. On the procedure:
To determine whether chronic feeding of piroxicam with CII would have a persistent effect on tolerance induction to CII in DBA/1 mice, three groups of 10-11 DBA/1 mice were fed 8 doses of CII over two weeks (as above) on two occasions separated by 6 months: piroxicam (2.4 μg/gm) a.m. and Placebo (0.1M HAc, 100 μl) p.m.; Placebo (saline) a.m. and native bovine CII (10 μg) p.m; or piroxicam (2.4 μg/gm) a.m. and native bovine CII (10 μg) p.m. Three months after the second 8 dose feeding, each mouse was immunized (intradermally at base of tail) with 100 μg native bovine CII emulsified in complete Freund's adjuvant. Mice were placed in coded cages and scored twice weekly by a blinded observer for numbers of arthritic joints.

Another test concerns Peyer's patch cells. The experiment in a line: Peyer's patch cell / normal spleen cell co-culture proliferation with α1(II) CB peptide mixture (3H thymidine). The test is classed as in vivo. The note with it: cells from mice fed piroxicam plus CII vs CII alone or piroxicam alone; p<0.03; FIG. 11. On the procedure: To assess the status of the GALT in these three groups of mice, Peyer's patch cells were isolated from each animal, and set up (2.5×10^5/ml) in quadruplicate in co-culture with normal DBA/1 spleen cells (2×10^6/ml) with addition of recombinant murine IL2 (10 U/ml). PBS (as a control) or 50 μg/ml bovine α1(II) CB peptide mixture were added to quadruplicate wells in 96 round bottom well plates. After 3 days, cultures were pulsed with ^3H thymidine and harvested onto paper filters 24 h later. The “stimulation index” was calculated for each mouse by dividing the cpm of α1(II) CB peptide mixture culture by the cpm of the PBS control culture for each mouse. […] Thus, the marked increase in the stimulation index of Peyer's patch cells with DBA/1 spleen cells in the presence of α1(II) CB peptide mixture is quite exceptional and unexpected.

In test [4] the test system is mesenteric lymph node cells. The experiment in a line: Mesenteric lymph node cell proliferation with α1(II) CB peptide mixture. It is filed as in vivo, mice. As to conditions: FIG. 12.
Setting [5] is: group mean, Genotype AA (N = 6).
[6] abbreviates: individual SSc patients, Genotype AA, after 12 months oral CI 500 μg/day minus baseline.
The mark [7] stands for this setting: individual SSc patients, Genotype GG or GA, after 12 months oral CI 500 μg/day minus baseline.
The mark [8] stands for this setting: patients with ROT1 AA genotype, oral bovine CI 500 ug/day for 12 months.

type I collagen [CI]: the “IL-10 production change, Bovine Native CI” value with PBMC (setting [5]) is -825 ± 338 pg/mL; with PBMC (group mean, Genotype GG or GA (BB or BA)), 27 ± 97 pg/mL; with PBMC (setting [6]) it was −1726 pg/ml and +70 pg/ml and −920 pg/ml and −233 pg/ml and −1886 pg/ml and −253 pg/ml; in the test with PBMC (setting [7]), −135 pg/ml and +566 pg/ml and −334 pg/ml and +192 pg/ml (2×) and +103 pg/ml and +386 pg/ml and −1564 pg/ml and +233 pg/ml and +21 pg/ml and +237 pg/ml and +150 pg/ml and −94 pg/ml and +32 pg/ml and −282 pg/ml and +232 pg/ml and −52 pg/ml and +43 pg/ml and +269 pg/ml and +341 pg/ml. Further, the “IL-10 production change, Bovine α1(I) CB Mix” value in the test with PBMC (setting [5]) is -622 ± 480 pg/mL; in the test on PBMC (group mean, Genotype GG or GA), 30 ± 119 pg/mL; in the test with PBMC (setting [6]) it was −342 pg/ml and −19 pg/ml and −611 pg/ml and −112 pg/ml and −2942 pg/ml and +295 pg/ml; in the test on PBMC (setting [7]) it was −314 pg/ml and +410 pg/ml and −104 pg/ml and −391 pg/ml and +529 pg/ml and +216 pg/ml and −968 pg/ml and +347 pg/ml and −397 pg/ml and +1364 pg/ml and +108 pg/ml and −205 pg/ml and −81 pg/ml and −561 pg/ml and +582 pg/ml and −46 pg/ml and −538 pg/ml and −227 pg/ml and +663 pg/ml and +221 pg/ml. Further, the “IL-10 production change, Bovine α2(I) CB Mix” value with PBMC (setting [5]) was -975 ± 627 pg/mL; in the test with PBMC (group mean, Genotype GG or GA), 22 ± 156 pg/mL; with PBMC (setting [6]), −1692 pg/ml and +28 pg/ml and −494 pg/ml and +490 pg/ml and −3736 pg/ml and −448 pg/ml; in the test with PBMC (setting [7]) it was −388 pg/ml and +203 pg/ml and −86 pg/ml and −180 pg/ml and +859 pg/ml and +546 pg/ml and −1000 pg/ml and +261 pg/ml and −2021 pg/ml and +1460 pg/ml and +145 pg/ml and −113 pg/ml and +141 pg/ml (2×) and −509 pg/ml and +5 pg/ml and +381 pg/ml and +252 pg/ml and −115 pg/ml and −415 pg/ml. Also, the “IL-10 production by PBMC cultured with native bovine CI and α2(I) CB mixture” value in the test with PBMC (setting [8]) is recorded as “did not upregulate IL-10 production; also recorded: deficient upregulation of IL-10 production”. Moreover, the “IL-10 production by PBMC cultured with α1(I) CB mixture” value in the test with PBMC (setting [8]) was “trend toward defective production”. Besides, in test [1], the “change in MRSS at 12 months from baseline values” is recorded as “significant difference”.
With `CN1C(C(=O)Nc2ccccn2)=C(O)c2ccccc2S1(=O)=O` [piroxicam], the “oral tolerance (OT) induction” value in the test on DBA/1 mice [2] (DBA/1 mice fed CII, FIG. 7 / similar studies (data not shown)) is given as “abrogation of certain forms of oral tolerance”. Further, the arthritic joints entry in the test on DBA/1 mice [2] (piroxicam 2.4 μg/gm a.m. + CII 10 μg p.m., eight doses, FIG. 7) is reported as “significantly more arthritic joints”. In addition, in the test on spleen cells (fed with Placebo (alone)), the “IFNγ production by spleen cells cultured with α1(II) CB peptide mixture” value is listed as “reduced production of IFNγ”. Also, in the test with spleen cells (piroxicam orally fed to mice being fed oral CII), the “IFNγ production by spleen cells stimulated with α1(II) CB peptide mixture” value is recorded as “dramatic increase”. In the test with DBA/1 mice [3], the oral tolerance result was “persistent abrogation of oral tolerance”. Moreover, the “arthritic joints at week 7 and 8 after immunization” value in the test with DBA/1 mice [3] (fed piroxicam plus CII 9 and 3 months before vs Placebo plus CII, p<0.04 at 8 weeks) is reported as “significantly more arthritic joints”. The “stimulation by α1(II) CB peptide mixture (stimulation index)” value in the test on Peyer's patch cells is reported as “marked stimulation”. Further, in test [4] (mice fed either CII or piroxicam alone), the “proliferation in response to α1(II) CB peptide mixture” value was “did not proliferate”. The “stimulation by α1(II) CB peptide mixture” value in test [4] (mice fed piroxicam plus CII) is on record as “marked stimulation”.
